Measured values reported in US12565489B2, “Heterocyclyl pyrimidines and triazines as novel fungicides” (Bayer Aktiengesellschaft, priority 2020, dated 2026).

Experiments:
Alternaria alternata = Alternaria alternata in vitro cell test; format: cell-based; conditions: 120 h, 20 ppm of active ingredient, 5 days incubation, liquid culture, spectrometric measurement of mycelium growth, read-out: efficacy (inhibition of fungal growth)
Method: (§1) • Solvent: DMSO • Culture medium: 14.6 g anhydrous D-glucose (VWR), 7.1 g Mycological Peptone (Oxoid), 1.4 g granulated Yeast Extract (Merck), QSP 1 liter • Inoculum: spore suspension Fungicides were solubilized in DMSO and the solution used to prepare the required range of concentrations. […] A spore suspension of A. alternata was prepared and diluted to the desired spore density. Fungicides were evaluated for their ability to inhibit spore germination and mycelium growth in liquid culture assay. The compounds were added in the desired concentration to the culture medium with spores. After 5 days incubation, fungi-toxicity of compounds was determined by spectrometric measurement of mycelium growth. Inhibition of fungal growth was determined by comparing the absorbance values in wells containing the fungicides with the absorbance in control wells without fungicides.

Pyricularia oryzae = assay: microbe, parasite or virus in culture; format: cell-based; conditions: 120 h, read-out: efficacy (inhibition of fungal growth)
[1] = system: Colletotrichum lindemuthianum; assay: Colletotrichum lindemuthianum in vitro cell test; format: cell-based; conditions: 144 h, 20 ppm of active ingredient, 6 days incubation, liquid culture, spectrometric measurement of mycelium growth, read-out: efficacy (inhibition of fungal growth)
Method: as §1, with “of C. lindemuthianum” for “of A. alternata”, “inhibit spores” for “inhibit spore”, “After 6” for “After 5”

Pyrenophora teres = Pyrenophora teres in vitro cell test; format: cell-based; conditions: 144 h, 20 ppm of active ingredient, 6 days incubation, liquid culture, spectrometric measurement of mycelium growth, read-out: efficacy (inhibition of fungal growth)
Method: as §1, with “P. teres” for “A. alternata”, “6” for “5”

Botrytis cinerea = Botrytis cinerea in vitro cell test; format: cell-based; conditions: 144 h, 20 ppm of active ingredient, 6 days incubation, liquid culture, spectrometric measurement of mycelium growth, read-out: efficacy (inhibition of fungal growth)
Method: (§2) • Solvent: DMSO • Culture medium: 1 g KH2PO4 (VWR), 1 g K2HPO4 (VWR), 0.5 g Urea (VWR), 3 g KNO3 (Prolabo), 10 g saccharose (VWR), 0.5 g MgSO4, 7H2O (Sigma), 0.07 g CaCl2, 2H2O (Prolabo), 0.2 mg MnSO4, H2O (Sigma), 0.6 mg CuSO4, 5H2O (Sigma), 7.9 mg ZnSO4, 7H2O (Sigma), 0.1 mg H3BO3 (Merck), 0.14 mg NaMoO4, 2H2O (Sigma), 2 mg thiamine (Sigma), 0.1 mg biotine (VWR), 4 mg FeSO4, 7H2O (Sigma), QSP 1 liter • Inoculum: spore suspension Fungicides were solubilized in DMSO and the solution used to prepare the required range of concentrations. […] A spore suspension of B. cinerea was prepared and diluted to the desired spore density. Fungicides were evaluated for their ability to inhibit spore germination and mycelium growth in liquid culture assay. The compounds were added in the desired concentration to the culture medium with spores. After 6 days incubation, fungi-toxicity of compounds was determined by spectrometric measurement of mycelium growth. Inhibition of fungal growth was determined by comparing the absorbance values in wells containing the fungicides with the absorbance in control wells without fungicides.

Septoria tritici = Septoria tritici in vitro cell test; format: cell-based; conditions: Zymoseptoria tritici, 168 h; 20 ppm of active ingredient; 7 days incubation; liquid culture, spectrometric measurement of mycelium growth; read-out: efficacy (inhibition of fungal growth)
Method: as §2, with “S. tritici” for “B. cinerea”, “After 6 days incubation, fungi-toxicity of compounds was determined by spectrometric measurement of mycelium growth.” left out

Alternaria brassicae = assay: In vivo preventive test on Alternaria brassicae (leaf spot on radish or cabbage); conditions: 144 h, 500 ppm of active ingredient, preventive spray on young radish or cabbage plants, evaluated 6 days after inoculation, read-out: efficacy
Method: (§3) The active ingredients were made soluble and homogenized in a mixture of Dimethyl sulfoxide/Acetone//Tween®80 and then diluted in water to the desired concentration. The young plants of radish or cabbage were treated by spraying the active ingredient prepared as described above. Control plants were treated only with an aqueous solution of Acetone/Dimethyl sulfoxide/Tween® 80. After 24 hours, the plants were contaminated by spraying the leaves with an aqueous suspension of Alternaria brassicae spores.

Sphaerotheca fuliginea = assay: In vivo preventive test on Sphaerotheca fuliginea (powdery mildew on cucurbits); conditions: Podosphaera fuliginea, 192 h; 500 ppm of active ingredient; preventive spray on young gherkin plants; evaluated 8 days after inoculation; read-out: efficacy
Method: as §3, with “gherkin” for “radish or cabbage”, “Sphaerotheca fuliginea” for “Alternaria brassicae”

Compound | inhibition at 20 ppm (Alternaria alternata) | inhibition at 20 ppm (Pyricularia oryzae) | inhibition at 20 ppm [1] | inhibition at 20 ppm (Pyrenophora teres) | inhibition at 20 ppm (Botrytis cinerea) | inhibition at 20 ppm (Septoria tritici) | pest or weed control at 500 ppm (Alternaria brassicae) | pest or weed control at 500 ppm (Sphaerotheca fuliginea)
Cc1ncc(Oc2cccc(C(F)(F)F)c2)c(C2=NOCC(Cc3ccc(Br)cc3C)N2)n1 (racemic) [Compound I-021, (5RS)-5-[(4-bromo-2-methyl-phenyl)methyl]-3-[2-methyl-5-[3-(trifluoro-methyl)phenoxy]pyrimidin-4-yl]-5,6-dihydro-4H-1,2,4-oxadiazine] | 90 to 100% | 90 to 100% | 90 to 100% | 90 to 100% | 90 to 100% | 90 to 100% | 90 to 100% | 90 to 100%
Cc1ccc(C[C@@H]2CON=C(c3nc(C)ncc3Oc3cccc(Cl)c3)N2)c(C)c1 (racemic) [Compound I-023] | 90 to 100% | 90 to 100% | 90 to 100% | 90 to 100% | 90 to 100% | 80 to 89% | 90 to 100% | 90 to 100%
Cc1ccc(CC2CON=C(c3nc(C)ncc3Oc3cccc(C(F)(F)F)c3)N2)c(C)c1 (racemic) [Compound I-002, (5RS)-5-(2,4-dimethylbenzyl)-3-{2-methyl-5-[3-(trifluoro-methyl)phenoxy]pyrimidin-4-yl}-5,6-dihydro-4H-1,2,4-oxadiazine] | 90 to 100% | 90 to 100% | 90 to 100% | 90 to 100% | 90 to 100% | 90 to 100% | 90 to 100% | 90 to 100%
Cc1ncc(Oc2cccc(C(F)(F)F)c2)c(C2=NOC[C@@H](Cc3ccc(SC(F)(F)F)cc3)N2)n1 (racemic) [Compound I-030] | 80 to 89% |  | 90 to 100% | 90 to 100% | 90 to 100% | 70 to 79% | 80 to 89% | 90 to 100%
Cc1ncc(Oc2cccc(C(F)(F)F)c2)c(C2=NOCC(Cc3ccc(C4CC4)cc3C)N2)n1 (racemic) [Compound I-029, (5RS)-5-[(4-cyclopropyl-2-methyl-phenyl)methyl]-3-[2-methyl-5-[3-(trifluoromethyl)phenoxy]pyrimidin-4-yl]-5,6-dihydro-4H-1,2,4-oxadiazine] | 90 to 100% | 90 to 100% | 90 to 100% | 90 to 100% | 90 to 100% | 90 to 100% | 90 to 100% | 90 to 100%
CSc1ncc(Oc2cccc(C(F)(F)F)c2)c(C2=NOC[C@@H](Cc3ccc(C)cc3C)N2)n1 (racemic) [Compound I-017] | 70 to 79% |  | 90 to 100% | 90 to 100% | 90 to 100% | 70 to 79% | 90 to 100% | 90 to 100%
Cc1ccc(C[C@@H]2CON=C(c3nc(C)ncc3Oc3cccc(Cl)c3)N2)c(Cl)c1 (racemic) [Compound I-018] | 90 to 100% | 90 to 100% | 90 to 100% | 90 to 100% | 90 to 100% | 90 to 100% | 90 to 100% | 90 to 100%
C=Cc1ccc(C[C@@H]2CON=C(c3nc(C)ncc3Oc3cccc(C(F)(F)F)c3)N2)c(C)c1 (racemic) [Compound I-006] | 90 to 100% | 70 to 79% | 90 to 100% | 90 to 100% | 90 to 100% | 90 to 100% | 90 to 100% | 90 to 100%
C#Cc1cccc(Oc2cnc(C)nc2C2=NOC[C@@H](Cc3ccc(C)cc3C)N2)c1 (racemic) [Compound I-025] | 90 to 100% | 90 to 100% | 90 to 100% | 90 to 100% | 90 to 100% | 90 to 100% | 90 to 100% | 90 to 100%
Cc1ncc(Oc2cccc(C(F)(F)F)c2)c(C2=NOC[C@@H](Cc3ccc(C(F)F)cc3Cl)N2)n1 (racemic) [Compound I-033] | 90 to 100% | 70 to 79% | 90 to 100% | 90 to 100% | 90 to 100% | 90 to 100% | 90 to 100% | 90 to 100%
C=Cc1cccc(Oc2cnc(C)nc2C2=NOC[C@@H](Cc3ccc(C)cc3C)N2)c1 (racemic) [Compound I-019] | 90 to 100% | 90 to 100% | 90 to 100% | 90 to 100% | 90 to 100% | 90 to 100% | 90 to 100% | 80 to 89%
Cc1cccc(Oc2cnc(C)nc2C2=NOC[C@@H](Cc3ccc(C)cc3C)N2)c1 (racemic) [Compound I-004] | 90 to 100% | 90 to 100% | 90 to 100% | 90 to 100% | 90 to 100% | 90 to 100% | 90 to 100% | 90 to 100%
Cc1ccc(C[C@@H]2CON=C(c3nc(C)ncc3Oc3cccc(C(F)(F)F)c3)N2)c(Cl)c1 (racemic) [Compound I-013] | 90 to 100% |  | 90 to 100% | 90 to 100% | 90 to 100% | 90 to 100% | 90 to 100% | 90 to 100%
